We go through 13 substances from patent US7745399B2, “Hsp70 peptide stimulating natural killer (NK) cell activity and uses thereof” (multimmune GmbH, priority 2000, dated 2010).

Like-named read-outs stand apart in the source and are kept apart here.

Assay [1] deals with NK cells. Particulars: Table II, complete proteins; cited from earlier work.
In assay [2] the test system is NK cells. Kind of assay: FACScan phenotypic characterization of stimulated NK cells. It counts as cell-based, human. Particulars: NK cells stimulated with IL-2 plus peptide 2 μg/ml. As to the method: (§1) Cytolytic activity of NK cells stimulated with IL-2 alone or with IL-2 plus the 14-mer peptide TKD or with IL-2 plus the 8-mer peptide NLL. Cytolytic activity of NK cells either stimulated with low dose IL-2 (100 IU/ml) alone or with IL-2 plus the 14-mer peptide TKD (2 μg/ml) or with IL-2 plus the 8-mer peptide NLL (2 μg/ml) for 4 days. As target cells ^51Cr labeled CX+ (FIG. 2a) and CX− (FIG. 2b) tumor cells, that differ with respect to their capability to express Hsp70 on the plasma membrane, were used. The results are expressed as the percentage of specific lysis at varying E:T ratios ranging from 2:1 up to 40:1. The percentage spontaneous release for each tumor target cell line was less than 20%.
Directly fluorescein-conjugated mAb (CD3FITC/CD16/CD56^PE, Becton Dickinson, Heidelberg, Germany) were added to cell suspensions (0.1×10^6 cells), incubated for 20 min on ice, washed and analysed on a FACScan instrument (Becton Dickinson, Heidelberg, Germany). The percentage of positively stained cells was defined as the number of specifically stained, viable (propidium-iodide negative) cells minus the number of cells stained with an isotype matched control antibody on a FACScan instrument (Becton Dickinson, Heidelberg, Germany).

The subject of the next assay is CX− tumor cells. Nature of the assay: 51Cr release assay (CML), cytolytic activity of stimulated NK cells against CX-. In kind it is cell-based, human. To be noted: NK cells stimulated 4 days with IL-2 100 IU/ml plus peptide 2 μg/ml. The method, then: as §1, with “The percentage spontaneous release for each tumor target cell line was less than 20%.” left out
(§2) The colon carcinoma sublines CX+ (>90% Hsp70 positive cells) and CX− (<20% Hsp70 positive cells) described in patent application EP-A2-084 300 5 and originally derived from CX2 colon carcinoma cells (Tumorzentrum Heidelberg, TZB 610005, Germany) that differ with respect to their capacity to express Hsp70 on their plasma membrane were cultured at 37° C., 5% CO2 in RPMI-1640 medium (Gibco, Eggenstein, Germany) supplemented with heat-inactivated 10% FCS (Gibco) and 2 mM L-glutamine and antibiotics (penicillin/streptomycin). […] All cell lines were free from mycoplasma contamination as determined by repeated testing using the 6-methylpurin desoxyribosid assay (Boehringer Mannheim, Germany).
(§3) The cytolytic activity of NK cells was monitored in a standard ^51Cr assay (23). […]

The test system of assay [3] is NK cells. Nature of the assay: 3H thymidine uptake assay, proliferative response of NK cells. It counts as cell-based, human. Particulars: IL-2 100 IU/ml plus peptide 0.02 up to 8 μg/ml. The method, then:
Comparison of the proliferative response of NK cells against Hsp70 peptides. NK cells were stimulated either with IL-2 (100 IU/ml) alone or with IL-2 plus peptides NLL (8-mer, FIG. 1a), TKD (14-mer, FIG. 1b) and GIPP (13 mer, FIG. 1c) at concentrations 0.02, 0.2, 2, 4 and 8 μg/ml. As a positive control NK cells were stimulated with rHsp70 protein at a concentration of 10 μg/ml. The proliferative response of NK cells was measured 72 h after peptide incubation and an 18 h incubation period with ^3H thymidine (1 μCi/ml). In FIG. 1e stimulation with TKD in a more refined scale between 0.1 and 3 μg is shown. […] Values are given as the means of four independent experiments+/−SD.
(§4) Briefly, monocyte depleted peripheral blood lymphocytes (PBL) were isolated from buffy coats of healthy human volunteers (Multhoff et al., 1995a). NK cells were purified by adherence selection following a modified protocol of Vujanovic (1993). T cells remain in the supernatant cell population.
(§5) The proliferative capacity of NK and T cells against different Hsp70 peptides and Hsp70 protein (loc. sit) was determined in a standard ^3H thymidine uptake assay (22). Viable cells (5×10^4 cells/100 μl) were seeded in 96-well flat-bottom microtiter plates (Greiner Nuertingen, Germany) in supplemented RPMI-1640 medium containing 100 IU IL-2 and Hsp70 protein (10 μg/ml) or different amounts of Hsp70 peptides ranging from 0.02 up to 10 μg/ml. As an internal control the proliferation against IL-2 alone was measured in parallel. After a 24 or 48 hour incubation period the cells were pulsed with ^3H thymidine (1 μCi/well) and the total uptake was measured following an 18 hour incubation period at 37° C. in a liquid scintillation counter (Beckmann instruments, Munich, Germany).

The test system of assay [4] is NK cells. Kind of assay: NK cell stimulation (3H thymidine uptake assays and 51Cr release assays). In kind it is cell-based, human. As to the method: as §5
The cytolytic activity of NK cells was monitored in a standard ^51Cr assay (23). Dilutions of the effector cells were incubated with ^51Cr-labeled (100 μCi of Na^51CrO4, NEN-Dupont, Boston, Mass.) tumor target cells (3×10^3 cells per well) in duplicates at a final volume of 200 μl RPMI-1640 medium supplemented with 10% FCS at 37° C. for 4 h in 96-well U-bottom plates (Greiner, Nuertingen, Germany). After the incubation period supernatants were collected and the radioactivity was counted in a γ-counter (Packard Instruments). The percentage of specific lysis was determined according to the equation: (experimental release−spontaneous release)/(maximum release−spontaneous release)×100. The percentage spontaneous release was always<15% for each target cell line.

The next assay has as its system T cells. Kind of assay: 3H thymidine uptake assay, proliferative response of T cells. In kind it is cell-based, human. Particulars: peptides plus low dose IL-2 (100 IU/ml), any tested concentration. As to the method:
as §4, §5

Assay [5] relates to NK cells. To be noted: cited from earlier work.
In the next assay the test system is CX+ tumor cells. Nature of the assay: 51Cr release assay (CML), cytolytic activity of stimulated NK cells against CX+. It counts as cell-based, human. To be noted: NK cells stimulated 4 days with IL-2 100 IU/ml plus peptide 2 μg/ml, compared to IL-2 alone or IL-2 plus NLL. As to the method: as §1, with “The percentage spontaneous release for each tumor target cell line was less than 20%.” left out
as §2, §3

[6] abbreviates: Table III, peptides only, 3H thymidine uptake and 51Cr release assays.

For the substance “Hsp70hom (complete protein): testis specific member of the Hsp70 family, complete protein”, the NK cell stimulation result in the assay with NK cells [1] is recorded as “yes”.

In the case of NLLGRFEL, in the assay on NK cells [2], the CD3 positive cells stood at 8% and the CD16/56 positive cells came to 80%. In addition, in the assay on CX− tumor cells, the “lysis of CX− tumor cells” value was “no significant differences”. Besides, in the assay with NK cells [3], the “proliferative capacity of NK cells” value was “did not stimulate”. For the same substance, the NK cell stimulation result with NK cells [4] (Table II, peptides) is on record as “no”. For the same substance, the NK cell stimulation entry with NK cells [4] (setting [6]) is on record as “no”. Moreover, the T cell growth entry in the assay on T cells is “none of the three peptides NLL, GIPP or TKD stimulates T cell growth”.

In the case of “EGERAMTKDNNLLGRFELSG (EGERAMTKDNNLLGRFELSG) [Hsp70 (peptide) 441-463, 20 mer peptide of Hsp70]”, the NK cell stimulation result with NK cells [4] (Table II, peptides) is listed as “yes”.

As to “G E R A M T K D N N L L G R F E L S G (GERAMTKDNNLLGRFELSG) [Hsp70 445-463, peptide, Hsp70 aa 445-463]”, the NK cell stimulation result in the assay with NK cells [4] (setting [6]) is on record as “yes”.

For the substance “NLLGRFELSGIPP [13-mer C-terminal extended peptide, Hsp70 aa 454-466]”, the “proliferative capacity of NK cells” value in the assay on NK cells [3] is “did not stimulate”. For the same substance, the NK cell stimulation result in the assay with NK cells [4] (Table II, peptides) is given as “no”; with NK cells [4] (setting [6]), “no”. The T cell growth entry with T cells is given as “none of the three peptides NLL, GIPP or TKD stimulates T cell growth”.

As for “rHsp70: Human recombinant Hsp70 protein from StressGen (SPP-755)”, the optimal stimulatory dose in the assay on NK cells [5] (defined previously) was 10 µg/mL. In the assay with NK cells [5] (low dose IL-2 (100 IU/ml) plus protein, compared to IL-2 only), the “proliferative response of human NK cells” value was “increase the proliferative response”.

For the substance “T K D N N L L G K F E L T G (TKDNNLLGKFELTG) [Hsc70, peptide, Hsc70 aa 450-463]”, in the assay with NK cells [4] (setting [6]), the NK cell stimulation result is recorded as “no”.

Turning to “T K D N N L L G R F E L S G (TKDNNLLGRFELSG) [14-mer peptide, Hsp70 aa 450-463]”, in the assay with NK cells [2], the CD3 positive cells was 6% and the CD16/56 positive cells was 79%. Further, in the assay on CX− tumor cells, the “lysis of CX− tumor cells” value is “no significant differences”. Moreover, the “lytic activity against Hsp70 expressing CX+ tumor cells” value in the assay on CX+ tumor cells is reported as “significantly enhanced lytic activity”. Further, the “proliferative capacity of NK cells” value in the assay on NK cells [3] was “comparable immunostimulatory capacity like full length Hsp70 protein”. Further, the NK cell stimulation entry in the assay with NK cells [4] (Table II, peptides) is given as “yes”. In addition, in the assay on NK cells [4] (setting [6]), the NK cell stimulation entry is listed as “yes”. The T cell growth entry with T cells is listed as “none of the three peptides NLL, GIPP or TKD stimulates T cell growth”.

For “T K D N N L L G R F E L T G (TKDNNLLGRFELTG) [HOM, peptide, Hsp70hom aa 450-463]”, in the assay on NK cells [4] (setting [6]), the NK cell stimulation entry was “low”.

“A A D N K S L G Q F N L D G (AADNKSLGQFNLDG) [DNAK, peptide, Dnak aa 447-460]”: the NK cell stimulation result with NK cells [4] (setting [6]) is “no”.

Turning to “Dank (complete protein): DnaK complete protein”, the NK cell stimulation entry in the assay on NK cells [1] was “no”.

With “Hsc70 (complete protein): Hsc70 complete protein”, the NK cell stimulation entry in the assay with NK cells [1] is “no”.

In the case of “T K D N N L L G R F E L (TKDNNLLGRFEL) [TKD12, peptide, Hsp70 aa 450-461]”, in the assay on NK cells [4] (setting [6]), the NK cell stimulation result is “no”.
